Experimental data taken from US8258114B2, “Modulation of glucose-6-phosphatase translocase expression” (Isis Pharmaceuticals, Inc., priority 2004, dated 2012).
Oligonucleotides are written 5' to 3', each unit as a sugar letter and its base; * is a phosphorothioate linkage, no mark a phosphodiester; rarer units and linkages stand in square brackets, end groups in braces. Plain capitals give the bases only. e = 2'-O-(2-methoxyethyl) (MOE); [5mC] = 5-methylcytosine; d = 2'-deoxy (DNA)

These sequences were tested on human glucose-6-phosphatase translocase mRNA (assay: Antisense inhibition of human glucose-6-phosphatase translocase mRNA in HepG2 cells (Table 11)). Settings: LIPOFECTIN, mRNA by real-time PCR.
Type: cell-based
Set-up: concentration or dose not given beside the values
Method: The human hepatoblastoma cell line HepG2 was obtained from the American Type Culture Collection (Manassas, Va.). HepG2 cells were routinely cultured in Eagle's MEM supplemented with 10% fetal bovine serum, 1 mM non-essential amino acids, and 1 mM sodium pyruvate (Invitrogen Life Technologies, Carlsbad, Calif.). Cells were routinely passaged by trypsinization and dilution when they reached approximately 90% confluence. Multiwell culture plates are prepared for cell culture by coating with a 1:100 dilution of type 1 rat tail collagen (BD Biosciences, Bedford, Mass.) in phosphate-buffered saline. The collagen-containing plates were incubated at 37° C. for approximately 1 hour, after which the collagen was removed and the wells were washed twice with phosphate-buffered saline. Cells were seeded into 96-well plates (Falcon-Primaria #353872, BD Biosciences, Bedford, Mass.) at a density of approximately 8,000 cells/well for use in oligomeric compound transfection experiments.
When cells reached 65-75% confluency, they were treated with oligonucleotide. Oligonucleotide was mixed with LIPOFECTIN™ Invitrogen Life Technologies, Carlsbad, Calif.) in Opti-MEM™-1 reduced serum medium (Invitrogen Life Technologies, Carlsbad, Calif.) to achieve the desired concentration of oligonucleotide and a LIPOFECTIN™ concentration of 2.5 or 3 μg/mL per 100 nM oligonucleotide. This transfection mixture was incubated at room temperature for approximately 0.5 hours. For cells grown in 96-well plates, wells were washed once with 100 μL OPTI-MEM™-1 and then treated with 130 μL of the transfection mixture. Cells grown in 24-well plates or other standard tissue culture plates are treated similarly, using appropriate volumes of medium and oligonucleotide. Cells are treated and data are obtained in duplicate or triplicate. After approximately 4-7 hours of treatment at 37° C., the medium containing the transfection mixture was replaced with fresh culture medium. Cells were harvested 16-24 hours after oligonucleotide treatment.
Quantitation of glucose 6-phosphatase translocase mRNA levels was accomplished by real-time quantitative PCR using the ABI PRISM™ 7600, 7700, or 7900 Sequence Detection System (PE-Applied Biosystems, Foster City, Calif.) according to manufacturer's instructions.
Prior to quantitative PCR analysis, primer-probe sets specific to the target gene being measured were evaluated for their ability to be “multiplexed” with a GAPDH amplification reaction. After isolation the RNA is subjected to sequential reverse transcriptase (RT) reaction and real-time PCR, both of which are performed in the same well. RT and PCR reagents were obtained from Invitrogen Life Technologies (Carlsbad, Calif.). […] The RT reaction was carried out by incubation for 30 minutes at 48° C. Following a 10 minute incubation at 95° C. to activate the PLATINUM® Taq, 40 cycles of a two-step PCR protocol were carried out: 95° C. for 15 seconds (denaturation) followed by 60° C. for 1.5 minutes (annealing/extension).
Gene target quantities obtained by RT, real-time PCR were normalized using either the expression level of GAPDH, a gene whose expression is constant, or by quantifying total RNA using RiboGreen™ (Molecular Probes, Inc. Eugene, Oreg.). GAPDH expression was quantified by RT, real-time PCR, by being run simultaneously with the target, multiplexing, or separately. Total RNA was quantified using RiboGreen™ RNA quantification reagent (Molecular Probes, Inc. Eugene, Oreg.).
A series of oligomeric compounds was designed to target different regions of human glucose-6-phosphatase translocase, using published sequences cited in Table 1. All compounds in Table 4 are chimeric oligonucleotides (“gapmers”) 20 nucleotides in length, composed of a central “gap” region consisting of 10 2′-deoxynucleotides, which is flanked on both sides (5′ and 3′) by five-nucleotide “wings”. The wings are composed of 2′-O-(2-methoxyethyl) nucleotides, also known as 2′-MOE nucleotides. […]

| Sequence | % Inhib [%] |
| --- | --- |
| CGAGGAGAAACCAAATACAG (e[5mC]*eG*eA*eG*eG*dA*dG*dA*dA*dA*d[5mC]*d[5mC]*dA*dA*dA*eT*eA*e[5mC]*eA*eG; antisense) [ISIS 359541] | 41 |
| CTGGTCACTGTTACCCGGAA (e[5mC]*eT*eG*eG*eT*d[5mC]*dA*d[5mC]*dT*dG*dT*dT*dA*d[5mC]*d[5mC]*e[5mC]*eG*eG*eA*eA; antisense) [ISIS 359533] | 69 |
| CTGGTTGACAGGATGGCCCA (e[5mC]*eT*eG*eG*eT*dT*dG*dA*d[5mC]*dA*dG*dG*dA*dT*dG*eG*e[5mC]*e[5mC]*e[5mC]*eA; antisense) [ISIS 359511] | 55 |
| GAAACCAAATACAGCTCCCA (eG*eA*eA*eA*e[5mC]*d[5mC]*dA*dA*dA*dT*dA*d[5mC]*dA*dG*d[5mC]*eT*e[5mC]*e[5mC]*e[5mC]*eA; antisense) [ISIS 359539] | 38 |
| GAACTGGCCCCAGTCAGTAC (eG*eA*eA*e[5mC]*eT*dG*dG*d[5mC]*d[5mC]*d[5mC]*d[5mC]*dA*dG*dT*d[5mC]*eA*eG*eT*eA*e[5mC]; antisense) [ISIS 359528] | 45 |
| GAAGGAGACAACCACACACA (eG*eA*eA*eG*eG*dA*dG*dA*d[5mC]*dA*dA*d[5mC]*d[5mC]*dA*d[5mC]*eA*e[5mC]*eA*e[5mC]*eA; antisense) [ISIS 359520] | 42 |
| GAGAAACCAAATACAGCTCC (eG*eA*eG*eA*eA*dA*d[5mC]*d[5mC]*dA*dA*dA*dT*dA*d[5mC]*dA*eG*e[5mC]*eT*e[5mC]*e[5mC]; antisense) [ISIS 359540] | 92 |
| GCCACCCAGAAGGCTGTGCT (eG*e[5mC]*e[5mC]*eA*e[5mC]*d[5mC]*d[5mC]*dA*dG*dA*dA*dG*dG*d[5mC]*dT*eG*eT*eG*e[5mC]*eT; antisense) [ISIS 359545] | 65 |
| GTCACTGGTCACTGTTACCC (eG*eT*e[5mC]*eA*e[5mC]*dT*dG*dG*dT*d[5mC]*dA*d[5mC]*dT*dG*dT*eT*eA*e[5mC]*e[5mC]*e[5mC]; antisense) [ISIS 359534] | 75 |
| GTGCTCTCCTCCTTCAAGGA (eG*eT*eG*e[5mC]*eT*d[5mC]*dT*d[5mC]*d[5mC]*dT*d[5mC]*d[5mC]*dT*dT*d[5mC]*eA*eA*eG*eG*eA; antisense) [ISIS 359527] | 45 |
| GTGCTGCGCCAGCTGTAGCT (eG*eT*eG*e[5mC]*eT*dG*d[5mC]*dG*d[5mC]*d[5mC]*dA*dG*d[5mC]*dT*dG*eT*eA*eG*e[5mC]*eT; antisense) [ISIS 359517] | 25 |
| TACCAGGATCCAGAGCTTGG (eT*eA*e[5mC]*e[5mC]*eA*dG*dG*dA*dT*d[5mC]*d[5mC]*dA*dG*dA*dG*e[5mC]*eT*eT*eG*eG; antisense) [ISIS 359535] | 58 |
| TCACTGTTACCCGGAAGAGG (eT*e[5mC]*eA*e[5mC]*eT*dG*dT*dT*dA*d[5mC]*d[5mC]*d[5mC]*dG*dG*dA*eA*eG*eA*eG*eG; antisense) [ISIS 359532] | 48 |
| TCCAGCCAGGTTCATGCTGG (eT*e[5mC]*e[5mC]*eA*eG*d[5mC]*d[5mC]*dA*dG*dG*dT*dT*d[5mC]*dA*dT*eG*e[5mC]*eT*eG*eG; antisense) [ISIS 359514] | 37 |
| TCCCAATACCAGGATCCAGA (eT*e[5mC]*e[5mC]*e[5mC]*eA*dA*dT*dA*d[5mC]*d[5mC]*dA*dG*dG*dA*dT*e[5mC]*e[5mC]*eA*eG*eA; antisense) [ISIS 359536] | 55 |
| TCCTTCAAGGAGCCCTTCTT (eT*e[5mC]*e[5mC]*eT*eT*d[5mC]*dA*dA*dG*dG*dA*dG*d[5mC]*d[5mC]*d[5mC]*eT*eT*e[5mC]*eT*eT; antisense) [ISIS 359525] | 56 |
| TCCTTTCTCCTGGATAAGGA (eT*e[5mC]*e[5mC]*eT*eT*dT*d[5mC]*dT*d[5mC]*d[5mC]*dT*dG*dG*dA*dT*eA*eA*eG*eG*eA; antisense) [ISIS 359530] | 59 |
